Results: US20220324906A1 (Novo Nordisk A/S, priority 2014, published 2022)

How the values were obtained:
eMuLV virus = assay: Clearance of spiked eMuLV by chromatography with a caprylic acid wash; conditions: 30 min
Experimental: A cell line media containing a recombinant human Fab-fragment was filtered through a 0.22 μm and then spiked with eMuLV virus. The spiked media was applied to a column packed with Capto L media (GE-Healthcare). […] Process temperature was 15-25° C. […] A cell line media containing a recombinant human antibody (IgG1) was filtered through a 0.22 μm filter and spiked with eMuLV virus. The spiked media was loaded on a column packed with Protein A (Mab Select SuRe, Ge Healthcare). […] After pH had stabilised the washing continued for 30 min. After 3 other washings (equilibration buffer, 50 mmol/kg phosphate, 1 mol/kg NaCl and then equilibration buffer), the mAb was eluted from the column with a formate buffer, pH 3.5. […] The process temperature was 15-25° C. A cell line media containing a recombinant human antibody (IgG4) was filtered through a 0.22 μm filter and spiked with eMuLV virus. The spiked media was loaded on a column packed with Protein A (Mab Select SuRe, Ge Healthcare). […] After pH had stabilised the washing continued for 30 min. After 3 other washing (equilibration buffer, 50 mmol/kg phosphate, 1 mol/kg NaCl) and then equilibration buffer), the mAb was eluted from the column with a formate buffer, pH 3.5. […] The process temperature was 15-25° C. A cell line media containing a recombinant human antibody (IgG1) was filtered through a 0.22 μm filter and spiked with eMuLV virus. The spiked media was loaded on a column packed with Protein A (Mab Select SuRe, Ge Healthcare). […] After pH had stabilised the washing continued for 30 min. After 3 other washings (equilibration buffer, 50 mmol/kg phosphate, 1 mol/kg NaCl and then equilibration buffer), the mAb was eluted from the column with a formate buffer, pH 3.5. […] The process temperature was 2-8° C.

MuLV virus = assay: Inactivation of MuLV with caprylic acid at different concentrations and pH; conditions: for Titre of MuLV virus after inactivation with caprylic acid: MuLV content 1.2 × 10^6; for Titre of MuLV after inactivating of MuLV with 60 mM caprylic acid: MuLV content 2.7 × 10^5
Description: The inactivation of MuLV was investigated at different concentrations of caprylic and at different pH (Table 6).

[1] = 60 mM, pH 6.0, free caprylic acid 4.3 mM, 1 minute
[2] = 60 mM, pH 6.0, free caprylic acid 4.3 mM, 5 minutes
[3] = 60 mM, pH 6.0, free caprylic acid 4.3 mM, 10 minutes
[4] = 60 mM, pH 6.0, free caprylic acid 4.3 mM, 30 minutes

## CCCCCCCC(=O)O [caprylic acid]
eMuLV virus; Example 2: IgG1, Protein A, 32 mmol/kg caprylate buffer pH 5.8 (2.9 mM free caprylic acid), 15-25° C.
  LRV: >3.0
eMuLV virus; Example 3: IgG4, Protein A, 32 mmol/kg caprylate buffer pH 5.8 (2.9 mM free caprylic acid), 15-25° C.
  LRV: >2.8
eMuLV virus; Example 4: IgG1, Protein A, 35 mmol/kg caprylate buffer pH 5.7 (3.9 mM free caprylic acid), 2-8° C.
  LRV: >3.0
MuLV virus; 10 mM, pH 5.0, free caprylic acid 4.4 mM, 5 minutes
  Titre of MuLV virus after inactivation with caprylic acid: 0
MuLV virus; 10 mM, pH 5.0, free caprylic acid 4.4 mM, 10 minutes
  Titre of MuLV virus after inactivation with caprylic acid: 0
MuLV virus; 10 mM, pH 5.0, free caprylic acid 4.4 mM, 30 minutes
  Titre of MuLV virus after inactivation with caprylic acid: 0
MuLV virus; 20 mM, pH 5.5, free caprylic acid 3.9 mM, 5 minutes
  Titre of MuLV virus after inactivation with caprylic acid: 0
MuLV virus; 20 mM, pH 5.5, free caprylic acid 3.9 mM, 10 minutes
  Titre of MuLV virus after inactivation with caprylic acid: 0
MuLV virus; 20 mM, pH 5.5, free caprylic acid 3.9 mM, 30 minutes
  Titre of MuLV virus after inactivation with caprylic acid: 0
MuLV virus; 60 mM caprylic acid, pH range 5.9 to 6.3, within 5 minutes
  inactivation of MuLV: more than 5.4 log 10
MuLV virus; 60 mM, pH 5.9, free caprylic acid 5.3 mM, 5 minutes
  Titre of MuLV after inactivating of MuLV with 60 mM caprylic acid: 0
MuLV virus; 60 mM, pH 5.9, free caprylic acid 5.3 mM, 10 minutes
  Titre of MuLV after inactivating of MuLV with 60 mM caprylic acid: 0
MuLV virus; 60 mM, pH 5.9, free caprylic acid 5.3 mM, 30 minutes
  Titre of MuLV after inactivating of MuLV with 60 mM caprylic acid: 0
MuLV virus; [1]
  Titre of MuLV virus after inactivation with caprylic acid: 0
  Titre of MuLV after inactivating of MuLV with 60 mM caprylic acid: 2.5
MuLV virus; [2]
  Titre of MuLV virus after inactivation with caprylic acid: 0
  Titre of MuLV after inactivating of MuLV with 60 mM caprylic acid: 0
MuLV virus; [3]
  Titre of MuLV virus after inactivation with caprylic acid: 0
  Titre of MuLV after inactivating of MuLV with 60 mM caprylic acid: 0
MuLV virus; [4]
  Titre of MuLV virus after inactivation with caprylic acid: 0
  Titre of MuLV after inactivating of MuLV with 60 mM caprylic acid: 0
MuLV virus; 60 mM, pH 6.1, free caprylic acid 3.5 mM, 1 minute
  Titre of MuLV after inactivating of MuLV with 60 mM caprylic acid: 0
MuLV virus; 60 mM, pH 6.1, free caprylic acid 3.5 mM, 5 minutes
  Titre of MuLV after inactivating of MuLV with 60 mM caprylic acid: 0
MuLV virus; 60 mM, pH 6.1, free caprylic acid 3.5 mM, 10 minutes
  Titre of MuLV after inactivating of MuLV with 60 mM caprylic acid: 0
MuLV virus; 60 mM, pH 6.1, free caprylic acid 3.5 mM, 30 minutes
  Titre of MuLV after inactivating of MuLV with 60 mM caprylic acid: 0
MuLV virus; 60 mM, pH 6.2, free caprylic acid 2.8 mM, 5 minutes
  Titre of MuLV after inactivating of MuLV with 60 mM caprylic acid: 0
MuLV virus; 60 mM, pH 6.2, free caprylic acid 2.8 mM, 10 minutes
  Titre of MuLV after inactivating of MuLV with 60 mM caprylic acid: 0
MuLV virus; 60 mM, pH 6.2, free caprylic acid 2.8 mM, 30 minutes
  Titre of MuLV after inactivating of MuLV with 60 mM caprylic acid: 0
MuLV virus; 60 mM, pH 6.3, free caprylic acid 2.2 mM, 5 minutes
  Titre of MuLV after inactivating of MuLV with 60 mM caprylic acid: 0
MuLV virus; 60 mM, pH 6.3, free caprylic acid 2.2 mM, 10 minutes
  Titre of MuLV after inactivating of MuLV with 60 mM caprylic acid: 0
MuLV virus; 60 mM, pH 6.3, free caprylic acid 2.2 mM, 30 minutes
  Titre of MuLV after inactivating of MuLV with 60 mM caprylic acid: 0
MuLV virus; caprylic acid concentrations of about 2 mM, after 30 minutes
  inactivation of MuLV: partial inactivation
MuLV virus; free caprylic acid below 1 mM
  inactivation of MuLV: no inactivation was observed
MuLV virus; pH range 5.0 to 6.0, free caprylic acid at least about 4 mM, after 5 minutes
  inactivation of MuLV: complete inactivation
